{
  "source": "ChEMBL document CHEMBL3046079",
  "about": "“Synthesis, herbicidal activity, and mode of action of IR 5790” (J Agric Food Chem, 2001)",
  "key": {"[1]": {"target": "T1, Putative protoporphyrinogen IX oxidase (Cucumis sativus) (UniProt C6L817)", "T1 sequence (whole entry)": "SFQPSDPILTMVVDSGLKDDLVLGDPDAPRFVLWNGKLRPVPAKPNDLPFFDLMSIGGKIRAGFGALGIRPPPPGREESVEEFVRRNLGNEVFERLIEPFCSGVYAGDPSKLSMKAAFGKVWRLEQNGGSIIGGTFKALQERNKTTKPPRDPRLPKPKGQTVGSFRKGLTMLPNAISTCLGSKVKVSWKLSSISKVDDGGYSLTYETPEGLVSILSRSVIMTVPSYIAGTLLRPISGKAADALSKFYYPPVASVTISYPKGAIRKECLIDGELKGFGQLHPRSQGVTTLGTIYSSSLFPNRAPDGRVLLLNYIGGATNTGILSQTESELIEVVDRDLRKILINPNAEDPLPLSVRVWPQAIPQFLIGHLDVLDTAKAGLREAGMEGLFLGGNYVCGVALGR", "assay": "Inhibition of protoporphyrin oxidase in Cucumis sativus (cucumber) cotyledon disc assessed as light-dependent membrane damage at 100 uM incubated for 20 hr in dark followed by 8 hr in presence of light measured as electrolyte leakage relative to control"}, "[2]": {"target": "T1, Putative protoporphyrinogen IX oxidase (Cucumis sativus)", "assay": "Inhibition of protoporphyrin oxidase in Cucumis sativus (cucumber) cotyledon disc assessed as light-dependent membrane damage at 10 uM incubated for 20 hr in dark followed by 8 hr in presence of light measured as electrolyte leakage relative to control"}, "[3]": {"target": "T1, Putative protoporphyrinogen IX oxidase (Cucumis sativus)", "assay": "Inhibition of protoporphyrin oxidase in Cucumis sativus (cucumber) cotyledon disc assessed as light-dependent membrane damage at 1 uM incubated for 20 hr in dark followed by 8 hr in presence of light measured as electrolyte leakage relative to control"}, "[4]": {"system": "Oryza sativa", "assay": "Phytotoxicity against Oryza sativa (rice) assessed as injury at 150 g/ha applied as post-emergent treatment at 15 days post-sowing measured after 15 days relative to control", "type": "organism-based", "conditions": "in vivo, other, 360 h"}, "[5]": {"system": "Solanum nigrum", "assay": "Pre-emergence herbicidal activity against Solanum nigrum (black nightshade) assessed as injury at 50 g/ha applied at 24 hr post-sowing measured after 28 days relative to control", "type": "functional"}, "[6]": {"system": "Papaver rhoeas", "assay": "Pre-emergence herbicidal activity against Papaver rhoeas assessed as injury at 50 g/ha applied at 24 hr post-sowing measured after 28 days relative to control", "type": "functional"}, "[7]": {"system": "Geranium dissectum", "assay": "Pre-emergence herbicidal activity against Geranium dissectum assessed as injury at 50 g/ha applied at 24 hr post-sowing measured after 28 days relative to control", "type": "functional"}, "[8]": {"system": "Digitaria sanguinalis", "assay": "Pre-emergence herbicidal activity against Digitaria sanguinalis (hairy crabgrass) assessed as injury at 150 g/ha applied at 24 hr post-sowing measured after 28 days relative to control", "type": "functional"}, "[9]": {"system": "Oryza sativa", "assay": "Phytotoxicity against Oryza sativa (rice) assessed as injury at 50 g/ha applied as pre-emergent treatment at 24 hr post-sowing measured after 28 days relative to control", "type": "organism-based", "conditions": "in vivo, other, 672 h"}, "[10]": {"system": "Xanthium strumarium", "assay": "Pre-emergence herbicidal activity against Xanthium strumarium (cocklebur) assessed as injury at 50 g/ha applied at 24 hr post-sowing measured after 28 days relative to control", "type": "functional"}, "[11]": {"system": "Veronica persica", "assay": "Pre-emergence herbicidal activity against Veronica persica assessed as injury at 50 g/ha applied at 24 hr post-sowing measured after 28 days relative to control", "type": "functional"}, "[12]": {"system": "Capsella bursa-pastoris", "assay": "Post-emergence herbicidal activity against Capsella bursa-pastoris assessed as injury at 150 g/ha applied at 15 days post-sowing measured after 15 days relative to control", "type": "functional"}, "[13]": {"system": "Ammi majus", "assay": "Post-emergence herbicidal activity against Amni maius assessed as injury at 150 g/ha applied at 15 days post-sowing measured after 15 days relative to control", "type": "functional"}, "[14]": {"system": "Matricaria chamomilla", "assay": "Post-emergence herbicidal activity against Matricaria chamomilla assessed as injury at 150 g/ha applied at 15 days post-sowing measured after 15 days relative to control", "type": "functional"}, "[15]": {"system": "Ipomoea purpurea", "assay": "Post-emergence herbicidal activity against Ipomoea purpurea (common morning-glory) assessed as injury at 150 g/ha applied at 15 days post-sowing measured after 15 days relative to control", "type": "functional"}, "[16]": {"system": "Solanum nigrum", "assay": "Post-emergence herbicidal activity against Solanum nigrum (black nightshade) assessed as injury at 5 g/ha applied at 15 days post-sowing measured after 15 days relative to control", "type": "functional"}, "[17]": {"system": "Oryza sativa", "assay": "Phytotoxicity against Oryza sativa (rice) assessed as injury at 15 g/ha applied as post-emergent treatment at 15 days post-sowing measured after 15 days relative to control", "type": "organism-based", "conditions": "in vivo, other, 360 h"}, "[18]": {"system": "Sorghum bicolor", "assay": "Post-emergence herbicidal activity against Sorghum bicolor assessed as injury at 15 g/ha applied at 15 days post-sowing measured after 15 days relative to control", "type": "functional"}, "[19]": {"system": "Panicum dichotomiflorum", "assay": "Post-emergence herbicidal activity against Panicum dichotomiflorum assessed as injury at 15 g/ha applied at 15 days post-sowing measured after 15 days relative to control", "type": "functional"}, "[20]": {"system": "Avena fatua", "assay": "Post-emergence herbicidal activity against Avena fatua assessed as injury at 15 g/ha applied at 15 days post-sowing measured after 15 days relative to control", "type": "functional"}, "[21]": {"system": "Stellaria media", "assay": "Post-emergence herbicidal activity against Stellaria media assessed as injury at 15 g/ha applied at 15 days post-sowing measured after 15 days relative to control", "type": "functional"}, "[22]": {"system": "Ipomoea purpurea", "assay": "Post-emergence herbicidal activity against Ipomoea purpurea (common morning-glory) assessed as injury at 15 g/ha applied at 15 days post-sowing measured after 15 days relative to control", "type": "functional"}, "[23]": {"system": "Alopecurus myosuroides", "assay": "Pre-emergence herbicidal activity against Alopecurus myosuroides assessed as injury at 150 g/ha applied at 24 hr post-sowing measured after 28 days relative to control", "type": "functional"}, "[24]": {"system": "Persicaria maculosa", "assay": "Pre-emergence herbicidal activity against Persicaria maculosa assessed as injury at 150 g/ha applied at 24 hr post-sowing measured after 28 days relative to control", "type": "functional"}, "[25]": {"system": "Geranium dissectum", "assay": "Pre-emergence herbicidal activity against Geranium dissectum assessed as injury at 150 g/ha applied at 24 hr post-sowing measured after 28 days relative to control", "type": "functional"}, "[26]": {"system": "Galium aparine", "assay": "Pre-emergence herbicidal activity against Galium aparine assessed as injury at 150 g/ha applied at 24 hr post-sowing measured after 28 days relative to control", "type": "functional"}, "[27]": {"system": "Capsella bursa-pastoris", "assay": "Pre-emergence herbicidal activity against Capsella bursa-pastoris assessed as injury at 150 g/ha applied at 24 hr post-sowing measured after 28 days relative to control", "type": "functional"}, "[28]": {"system": "Gossypium hirsutum", "assay": "Phytotoxicity against Gossypium hirsutum (cotton) assessed as injury at 50 g/ha applied as post-emergent treatment at 15 days post-sowing measured after 15 days relative to control", "type": "organism-based", "conditions": "in vivo, other, 360 h"}, "[29]": {"system": "Echinochloa crus-galli", "assay": "Post-emergence herbicidal activity against Echinochloa crus-galli (barnyard grass) assessed as injury at 50 g/ha applied at 15 days post-sowing measured after 15 days relative to control", "type": "functional"}, "[30]": {"system": "Veronica persica", "assay": "Post-emergence herbicidal activity against Veronica persica assessed as injury at 50 g/ha applied at 15 days post-sowing measured after 15 days relative to control", "type": "functional"}, "[31]": {"system": "Ipomoea purpurea", "assay": "Post-emergence herbicidal activity against Ipomoea purpurea (common morning-glory) assessed as injury at 50 g/ha applied at 15 days post-sowing measured after 15 days relative to control", "type": "functional"}, "[32]": {"system": "Capsella bursa-pastoris", "assay": "Post-emergence herbicidal activity against Capsella bursa-pastoris assessed as injury at 50 g/ha applied at 15 days post-sowing measured after 15 days relative to control", "type": "functional"}},
  "note": "Active and inactive are the calls of the source. No cut-off for these calls is given here.",
  "data": [
    {"molecule": "C#CCOc1cc(-n2nc(C(C)(C)C)sc2=O)c(Cl)cc1Cl", "values": [
      {"measurement": "inhibition", "setting": "[1]", "result": 90, "unit": "%"},
      {"measurement": "inhibition", "setting": "[2]", "result": "Active"},
      {"measurement": "inhibition", "setting": "[3]", "result": "inactive"},
      {"measurement": "Activity", "setting": "[4]", "result": 0, "unit": "%"},
      {"measurement": "Activity", "setting": "[5]", "result": 30, "unit": "%"},
      {"measurement": "Activity", "setting": "[6]", "result": 70, "unit": "%"},
      {"measurement": "Activity", "setting": "[7]", "result": 0, "unit": "%"},
      {"measurement": "Activity", "setting": "[8]", "result": 90, "unit": "%"},
      {"measurement": "Activity", "setting": "[9]", "result": 0, "unit": "%"},
      {"measurement": "Activity", "setting": "[10]", "result": 0, "unit": "%"},
      {"measurement": "Activity", "setting": "[11]", "result": 30, "unit": "%"},
      {"measurement": "Activity", "setting": "[12]", "result": 50, "unit": "%"},
      {"measurement": "Activity", "setting": "[13]", "result": 10, "unit": "%"},
      {"measurement": "Activity", "setting": "[14]", "result": 10, "unit": "%"},
      {"measurement": "Activity", "setting": "[15]", "result": 90, "unit": "%"},
      {"measurement": "Activity", "setting": "[16]", "result": 0, "unit": "%"},
      {"measurement": "Activity", "setting": "[17]", "result": 0, "unit": "%"},
      {"measurement": "Activity", "setting": "[18]", "result": 10, "unit": "%"},
      {"measurement": "Activity", "setting": "[19]", "result": 0, "unit": "%"},
      {"measurement": "Activity", "setting": "[20]", "result": 0, "unit": "%"},
      {"measurement": "Activity", "setting": "[21]", "result": 0, "unit": "%"},
      {"measurement": "Activity", "setting": "[22]", "result": 90, "unit": "%"},
      {"measurement": "Activity", "setting": "[23]", "result": 70, "unit": "%"},
      {"measurement": "Activity", "setting": "[24]", "result": 50, "unit": "%"},
      {"measurement": "Activity", "setting": "[25]", "result": 0, "unit": "%"},
      {"measurement": "Activity", "setting": "[26]", "result": 0, "unit": "%"},
      {"measurement": "Activity", "setting": "[27]", "result": 90, "unit": "%"},
      {"measurement": "Activity", "setting": "[28]", "result": 30, "unit": "%"},
      {"measurement": "Activity", "setting": "[29]", "result": 0, "unit": "%"},
      {"measurement": "Activity", "setting": "[30]", "result": 0, "unit": "%"},
      {"measurement": "Activity", "setting": "[31]", "result": 90, "unit": "%"},
      {"measurement": "Activity", "setting": "[32]", "result": 10, "unit": "%"}
    ]}
  ]
}
